Test results reported in patent US10189857B2, “Positive allosteric modulators of the muscarinic acetylcholine receptor M4” (Vanderbilt University, priority 2016, dated 2019).

Biological target: T1, Human M4 (Homo sapiens, UniProt P08173)
T1 construct: expressed in transfected cells; host or cells: CHO-K1 (American Type Culture Collection), stably expressing M4 and Gqi5
T1 sequence (P08173 1-479): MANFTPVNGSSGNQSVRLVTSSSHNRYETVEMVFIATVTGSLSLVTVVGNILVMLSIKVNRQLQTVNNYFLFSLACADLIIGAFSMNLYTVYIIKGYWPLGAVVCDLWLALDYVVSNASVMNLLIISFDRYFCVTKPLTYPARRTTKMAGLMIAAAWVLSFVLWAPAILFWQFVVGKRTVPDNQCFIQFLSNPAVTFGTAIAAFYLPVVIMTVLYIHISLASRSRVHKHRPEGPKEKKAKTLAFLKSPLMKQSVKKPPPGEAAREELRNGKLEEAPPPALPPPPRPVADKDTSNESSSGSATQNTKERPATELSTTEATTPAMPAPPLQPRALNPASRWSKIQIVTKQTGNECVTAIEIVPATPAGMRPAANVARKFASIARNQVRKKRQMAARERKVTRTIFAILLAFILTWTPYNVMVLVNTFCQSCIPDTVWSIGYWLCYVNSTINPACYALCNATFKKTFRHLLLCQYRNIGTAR
Assay: mAChR M4 cell-based functional assay (calcium flux, potentiation of EC20 acetylcholine response)
Settings: M4/Gqi5/CHO-K1 cells; for Emax at 30 µM: % ACh maximum at 30 μM; for EC50: PAM activity as increase in EC20 acetylcholine response
Method: Human M4 cDNA, along with the chimeric G protein Gqi5, were transfected into Chinese hamster ovary (CHO-K1) cells purchased from the American Type Culture Collection using Lipofectamine2000. M4/Gqi5/CHO cells were grown in Ham's F-12 medium containing 10% heat-inactivated fetal bovine serum (FBS), 20 mM HEPES, 500 μg/mL G418 sulfate, and 200 μg/mL Hygromycin B.
For high throughput measurement of agonist-evoked increases in intracellular calcium, CHO-K1 cells stably expressing muscarinic receptors were plated in growth medium lacking G418 and hygromycin at 15,000 cells/20 μL/well in Greiner 384-well black-walled, tissue culture (TC)-treated, clear-bottom plates (VWR). Cells were incubated overnight at 37° C. and 5% CO2. The next day, cells were washed using an ELX 405 (BioTek) with assay buffer; the final volume was then aspirated to 20 μL. Next, 20 μL of a 2.3 μM stock of Fluo-4/acetoxymethyl ester (Invitrogen, Carlsbad, Calif.), prepared as a 2.3 mM stock in DMSO and mixed in a 1:1 ratio with 10% (w/v) Pluronic F-127 and diluted in assay buffer, was added to the wells and the cell plates were incubated for 50 min at 37° C. and 5% CO2. Dye was removed by washing with the ELX 405 and the final volume was aspirated to 20 μL. Compound master plates were formatted in an 11 point concentration-response curve (CRC) format (1:3 dilutions) in 100% DMSO with a starting concentration of 10 mM using a BRAVO liquid handler (Agilent). Test compound CRCs were then transferred to daughter plates (240 nL) using the Echo acoustic plate reformatter (Labcyte, Sunnyvale, Calif.) and then diluted into assay buffer (40 μL) to a 2× stock using a Thermo Fisher Combi (Thermo Fisher Scientific, Waltham, Mass.).
Calcium flux was measured using the Functional Drug Screening System (FDSS) 6000 or 7000 (Hamamatsu Corporation, Tokyo, Japan) as an increase in the fluorescent static ratio. Compounds were applied to cells (20 μL, 2×) using the automated system of the FDSS at 2-4 seconds into the protocol and the data were collected at 1 Hz. At approximately 144 s, […] an EC20 concentration of the muscarinic receptor agonist acetylcholine was added (5×), followed by the addition of 12 μL of an EC80 concentration of acetylcholine at approximately the 230 s time point (5×). Agonist activity was analyzed as a concentration-dependent increase in calcium mobilization upon compound addition. Positive allosteric modulator activity was analyzed as a concentration-dependent increase in the EC20 acetylcholine response. Antagonist activity was analyzed as a concentration-dependent decrease in the EC80 acetylcholine response. Concentration-response curves were generated using a four-parameter logistical equation in XLFit curve fitting software (IDBS, Bridgewater, N.J.) for Excel (Microsoft, Redmond, Wash.) or Prism (GraphPad Software, Inc., San Diego, Calif.) or the Domatics software platform (Domatics, Bishop's Stortford, UK).
Compounds were synthesized as described above. Activity (EC50 and Emax) was determined in the mAChR M4 cell-based functional assay as described above and the data are shown in Table 2. The compound numbers correspond to the compound numbers used in Table 1.

Emax at 30 µM [%]	EC50 [nM]	SMILES
38.8	3330	Cc1c2c(N)c(C(=O)N3CCC(c4ccccc4)C3)sc2nn2cnnc12 (stereo not drawn) [Compound 1, (8-amino-9-methylthieno[3,2-e][1,2,4]triazolo[4,3-b]pyridazin-7-yl)(3-phenylpyrrolidin-1-yl)methanone]
72.2	9670	Cc1c2c(N)c(C(=O)N3CCCC3)sc2nn2cnnc12 [Compound 2, (8-amino-9-methylthieno[3,2-e][1,2,4]triazolo[4,3-b]pyridazin-7-yl)(pyrrolidin-1-yl)methanone]
82.3	90	Cc1c2c(N)c(C(=O)NC3Cc4ccccc4C3)sc2nn2cnnc12 [Compound 3, 8-amino-N-(2,3-dihydro-1H-inden-2-yl)-9-methylthieno[3,2-e][1,2,4]triazolo[4,3-b]pyridazine-7-carboxamide]
80.6	670	COc1ccc(CNC(=O)c2sc3nn4cnnc4c(C)c3c2N)cc1 [Compound 4, 8-amino-N-(4-methoxybenzyl)-9-methylthieno[3,2-e][1,2,4]triazolo[4,3-b]pyridazine-7-carboxamide]
74.2	290	Cc1c2c(N)c(C(=O)NC3CC3)sc2nn2cnnc12 [Compound 5, 8-amino-N-cyclopropyl-9-methylthieno[3,2-e][1,2,4]triazolo[4,3-b]pyridazine-7-carboxamide]
71.8	890	Cc1c2c(N)c(C(=O)NC3CCC3)sc2nn2cnnc12 [Compound 6, 8-amino-N-cyclobutyl-9-methylthieno[3,2-e][1,2,4]triazolo[4,3-b]pyridazine-7-carboxamide]
42.5	7000	Cc1c2c(N)c(C(=O)NC3CCN(c4ccccc4)CC3)sc2nn2cnnc12 [Compound 7, 8-amino-9-methyl-N-(1-phenylpiperidin-4-yl)thieno[3,2-e][1,2,4]triazolo[4,3-b]pyridazine-7-carboxamide]
78	370	Cc1c2c(N)c(C(=O)NCc3cccc(F)c3)sc2nn2cnnc12 [Compound 8, 8-amino-N-(3-fluorobenzyl)-9-methylthieno[3,2-e][1,2,4]triazolo[4,3-b]pyridazine-7-carboxamide]
76.3	1120	Cc1c2c(N)c(C(=O)NCc3ccc(F)cc3)sc2nn2cnnc12 [Compound 9, 8-amino-N-(4-fluorobenzyl)-9-methylthieno[3,2-e][1,2,4]triazolo[4,3-b]pyridazine-7-carboxamide]
